According to ChEMBL document CHEMBL5579794, “Improved synthesis and evaluation of preclinical pharmacodynamic parameters of a new monocyclic β-lactam DPI-2016” (Bioorg Med Chem Lett, 2024):

Columns and labels:
[1] = Stability in monkey plasma at 1 uM measured upto 120 mins by LC-MS/MS analysis; type: ADME, cell-free, Macaca mulatta; details: rhesus monkey, 2 h
[2] = Stability in rat plasma at 1 uM measured upto 120 mins by LC-MS/MS analysis; type: ADME, cell-free; details: 2 h
[3] = Stability in mouse plasma at 1 uM measured upto 120 mins by LC-MS/MS analysis; type: ADME, cell-free; details: 2 h
[4] = Stability in human plasma at 1 uM measured upto 120 mins by LC-MS/MS analysis; type: ADME, cell-free; details: 2 h
[5] = Stability in dog plasma at 1 uM measured upto 120 mins by LC-MS/MS analysis; type: ADME, cell-free, Canis lupus familiaris; details: 2 h
[6] = Stability in rat liver microsomes at 0.2 mg/ml measured up to 60 mins in presence of NADPH by LC-MS/MS analysis; type: ADME, Microsome; details: 1 h
[7] = Stability in human liver microsomes at 0.2 mg/ml measured up to 60 mins in presence of NADPH by LC-MS/MS analysis; type: ADME, Microsome; details: 1 h
[8] = Stability in monkey liver microsomes at 0.2 mg/ml measured up to 60 mins in presence of NADPH by LC-MS/MS analysis; type: ADME, Macaca mulatta, Microsome; details: rhesus monkey, 1 h
[9] = Stability in dog liver microsomes at 0.2 mg/ml measured up to 60 mins in presence of NADPH by LC-MS/MS analysis; type: ADME, Canis lupus familiaris, Microsome; details: 1 h
[10] = Stability in mouse liver microsomes at 0.2 mg/ml measured up to 60 mins in presence of NADPH by LC-MS/MS analysis; type: ADME, Microsome; details: 1 h
[11] = Plasma protein binding in human at 1 uM incubated for 6 hrs by LC-MS/MS analysis; type: ADME, cell-free; details: read-out: PPB (converted)
[12] = Plasma protein binding in rat at 1 uM incubated for 6 hrs by LC-MS/MS analysis; type: ADME, cell-free; details: read-out: PPB (converted)

CC(C)[N+](C)(CCOC(=O)C1c2ccccc2Oc2ccccc21)C(C)C [PROPANTHELINE]
Stability [1]: Unstable | Stability [2]: Unstable | Stability [3]: Unstable | Stability [4]: Unstable | Stability [5]: Unstable

Cc1ncc2n1-c1ccc(Cl)cc1C(c1ccccc1F)=NC2 [MIDAZOLAM]
Stability [6]: Unstable | Stability [7]: Unstable | Stability [8]: Unstable | Stability [9]: Unstable | Stability [10]: Unstable

CC(=O)Nc1ccc(O)cc1 [ACETAMINOPHEN]
fraction unbound at 6 h, 1 µM [11]: 0.741 | fraction unbound at 6 h, 1 µM [12]: 0.526
